Among the data in patent US20180057505A1, “BICYCLIC HETEROARYL COMPOUNDS USEFUL AS INHIBITORS OF THE PAR-2 SIGNALING PATHWAY” (VERTEX PHARMACEUTICALS INCORPORATED, priority 2015, published 2018) are IC50 and inhibition values, retold here.

Usually IC50 stands for the point on the concentration scale where inhibition reaches its midpoint. A word on the inhibition: it is the share of the control response that was lost under treatment.

Common to all, as to type: cell-based
Assay [1] relates to UTP-stimulated Ca2+ response in HT-29 cells. The assay is described as follows: Ca FLIPR TETRA assay, ANTAGONIST mode, activator 0.6 μM UTP. To be noted: Homo sapiens; for IC50: HT-29 cells, activator 0.6 μM UTP; for inhibition at 50 µM: HT-29. Summed up:
(§1)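 Ca2+ flux by FLIPR Tetra in HT-29 cells after 30 min r.t. compound preincubation, followed by stimulation with SLIGKV 8 μM, thrombin 1 U/mL, trypsin 3.1 U/mL or UTP 0.6 μM (final). Cells were dye-loaded with calcium 5 beforehand; compound-only responses were also read.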

The target of assay [2] is T1, PAR2 (HT-29 cells) (Homo sapiens, UniProt P55085).
T1 construct: host or cells: HT-29
T1 sequence (P55085 26-397): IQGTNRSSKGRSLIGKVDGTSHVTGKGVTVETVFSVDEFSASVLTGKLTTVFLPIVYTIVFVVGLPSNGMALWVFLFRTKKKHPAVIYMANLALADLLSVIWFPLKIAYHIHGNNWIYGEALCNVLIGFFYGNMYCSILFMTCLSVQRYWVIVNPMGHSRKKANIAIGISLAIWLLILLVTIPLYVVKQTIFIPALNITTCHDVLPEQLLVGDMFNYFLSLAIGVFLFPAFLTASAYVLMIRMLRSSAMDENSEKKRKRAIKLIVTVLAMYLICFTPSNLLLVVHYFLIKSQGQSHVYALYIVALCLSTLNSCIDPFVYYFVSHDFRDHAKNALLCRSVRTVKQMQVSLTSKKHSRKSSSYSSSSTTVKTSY
The assay is described as follows: Ca FLIPR TETRA assay, ANTAGONIST mode, activator 3.1 U/mL trypsin. To be noted: HT-29 cells, activator 3.1 U/mL trypsin; maximal antagonist concentration per Method (A: 0.1, 1 or 2 μM; B: 50 μM). Summed up:
as §1

The target of assay [3] is T1, PAR2 (HT-29 cells). The assay is described as follows: Ca FLIPR TETRA assay, ANTAGONIST mode, activator 8 μM SLIGKV. As to conditions: HT-29 cells, activator 8 μM SLIGKV; maximal antagonist concentration per Method (A: 0.1, 1 or 2 μM; B: 50 μM). Summed up:
as §1

In assay [4] the test system is Thrombin-stimulated Ca2+ response in HT-29 cells. The assay is described as follows: Ca FLIPR TETRA assay, ANTAGONIST mode, activator 1 U/mL Thrombin. To be noted: Homo sapiens; HT-29 cells, activator 1 U/mL Thrombin. The method, boiled down:
as §1

Where only a bound is given, the exact number is not on record here.

On to `CC(C)c1cc(-c2ccc(F)cc2)nc2cc(C(=O)N3CCN(C(=O)C4(O)CCOCC4)CC3)oc12` [Example I-95], for which the IC50 turned out to be 14 µM in assay [1], 8.9 µM in assay [2], 10 µM in assay [3] and 15 µM in assay [4].

In the case of `CC(C)c1cc(-c2ccc(F)cc2)nc2cc(C(=O)N3CCN(C(=O)C(C)(C)O)CC3)oc12` [Example I-96], the IC50 in assay [1] amounted to 14 µM; in assay [2], 12 µM; in assay [3], 13 µM; in assay [4], 17 µM.

On to `CC(C)c1cc(-c2ccc(F)cc2)nc2cc(C(=O)N3CCN(C(=O)C4(O)CCC4)C[C@H]3C)oc12` [Example I-97], for which the IC50 in assay [1] worked out at 15 µM; in assay [2], 5.1 µM; in assay [3], 4.1 µM; in assay [4], 18 µM.

Regarding `CC(C)c1cc(-c2ccc(F)cc2)nc2cc(C(=O)N3CCN(C(=O)[C@@H](C)O)C[C@H]3C)oc12` [Example I-98], the IC50 in assay [1] came to 20 µM; in assay [2], 7 µM; in assay [3], 5.3 µM; in assay [4], 18 µM.

As for `CC(C)c1cc(-c2ccc(F)cc2)nc2cc(C(=O)N3CCN(C(=O)[C@H](O)CC(C)(C)C)C[C@H]3C)oc12` [Example I-99], in assay [1], the inhibition at 50 µM came to 63%. Also, the IC50 in assay [2] amounted to 0.43 µM; in assay [3] it was 0.062 µM; in assay [4], 3.9 µM.

In the case of `CC(C)c1cc(-c2ccc(F)cc2)nc2cc(C(=O)N3CCN(C(=O)C4(O)CCOCC4)C[C@H]3C)oc12` [Example I-100], the IC50 in assay [1] was found to be 13 µM; in assay [2], 11 µM; in assay [3], 9.1 µM; in assay [4], 16 µM.

Consider `CC(C)c1cc(-c2ccc(F)cc2)nc2cc(C(=O)N3CCN(C(=O)C(C)(C)O)C[C@H]3C)oc12` [Example I-101], for which the IC50 in assay [1] stood at 13 µM; in assay [2], 9.1 µM; in assay [3], 7.6 µM; in assay [4] it was 18 µM.

Consider `CC(C)c1cc(-c2ccc(F)cc2)nc2cc(C(=O)N3CCN(C(=O)C4(O)CCC4)C[C@@H]3C)oc12` [Example I-102], for which the IC50 is 5.4 µM in assay [1], 5.2 µM in assay [2], 4.7 µM in assay [3] and 16 µM in assay [4].

With `CC(C)c1cc(-c2ccc(F)cc2)nc2cc(C(=O)N3CCN(C(=O)[C@@H](C)O)C[C@@H]3C)oc12` [Example I-103], the IC50 in assay [1] came out at 24 µM; in assay [2], 8.5 µM; in assay [3] it was 7.9 µM; in assay [4], 29 µM.

As to `CC(C)c1cc(-c2ccc(F)cc2)nc2cc(C(=O)N3CCN(C(=O)[C@H](O)CC(C)(C)C)C[C@@H]3C)oc12` [Example I-104], the inhibition at 50 µM in assay [1] was 64%. Also, the IC50 stood at 0.83 µM in assay [2], 0.73 µM in assay [3] and 2.6 µM in assay [4].

For the compound `CC(C)c1cc(-c2ccc(F)cc2)nc2cc(C(=O)N3CCN(C(=O)C4(O)CCOCC4)C[C@@H]3C)oc12` [Example I-105], the IC50 in assay [1] was found to be 15 µM; in assay [2], 7.7 µM; in assay [3] it was 8.7 µM; in assay [4], 12 µM.

`CC(C)c1cc(-c2ccc(F)cc2)nc2cc(C(=O)N3CCN(C(=O)C(C)(C)O)C[C@@H]3C)oc12` [Example I-106]: the IC50 in assay [1] worked out at 14 µM; in assay [2] it was 7.7 µM; in assay [3] it was 7.8 µM; in assay [4], 15 µM.

In the case of `CCCS(=O)(=O)N1CCN(C(=O)c2cc3nc(-c4ccc(F)cc4)cc(C4(C)CC4)c3o2)C(C)(C)C1` [Example I-107], the IC50 was over 50 µM in assay [1], 0.028 µM in assay [2], 0.034 µM in assay [3] and over 50 µM in assay [4].

`CCOC(=O)N1CCN(C(=O)c2cc3nc(-c4ccc(F)cc4)cc(C4(C)CC4)c3o2)C(C)(C)C1` [Example I-108]: the IC50 in assay [1] was over 50 µM; in assay [2], 0.0018 µM; in assay [3], 0.0022 µM; in assay [4], over 50 µM.

For `C[C@H]1CN(C(=O)c2cc3nc(-c4ccc(F)cc4)cc(C4(C)CC4)c3o2)CCN1C(=O)C(C)(C)O` [Example I-109], the IC50 in assay [1] is 11 µM; in assay [2], 3.4 µM; in assay [3], 2.3 µM; in assay [4], 12 µM.

Take `CC[C@@H](O)C(=O)N1CCN(C(=O)c2cc3nc(-c4ccc(F)cc4)cc(C4(C)CC4)c3o2)C[C@@H]1C` [Example I-110]: the IC50 in assay [1] came out at 14 µM; in assay [2], 0.064 µM; in assay [3], 0.04 µM; in assay [4] it was 18 µM.

Take `C[C@H]1CN(C(=O)c2cc3nc(-c4ccc(F)cc4)cc(C4(C)CC4)c3o2)CCN1C(=O)C(O)C1CC1` (stereo partly shown) [Example I-111]: the IC50 in assay [1] is 12 µM; in assay [2] it was 0.041 µM; in assay [3], 0.0565 µM; in assay [4], 19 µM.

For the compound `CC(C)[C@@H](O)C(=O)N1CCN(C(=O)c2cc3nc(-c4ccc(F)cc4)cc(C4(C)CC4)c3o2)C[C@@H]1C` [Example I-112], the IC50 in assay [1] is 11 µM; in assay [2] it was 0.027 µM; in assay [3], 0.013 µM; in assay [4], 13 µM.

As for `CC(C)C[C@@H](O)C(=O)N1CCN(C(=O)c2cc3nc(-c4ccc(F)cc4)cc(C4(C)CC4)c3o2)C[C@@H]1C` [Example I-113], the IC50 turned out to be 12 µM in assay [1], 0.002 µM in assay [2], 0.011 µM in assay [3] and 17 µM in assay [4].

Consider `C[C@H]1CN(C(=O)c2cc3nc(-c4ccc(F)cc4)cc(C4(C)CC4)c3o2)CCN1C(=O)C(O)c1ccc(F)cc1` (stereo partly shown) [Example I-114], for which the IC50 in assay [1] came out at 30 µM; in assay [2], 0.0027 µM; in assay [3], 0.0022 µM; in assay [4], 27 µM.

For the compound `C[C@H]1CN(C(=O)c2cc3nc(-c4ccc(F)cc4)cc(C4(C)CC4)c3o2)CCN1C(=O)C1CCC1` [Example I-115], in assay [1], the inhibition at 50 µM is 66%. The IC50 in assay [2] was 0.092 µM; in assay [3], 0.046 µM; in assay [4], over 50 µM.

Regarding `C[C@H]1CN(C(=O)c2cc3nc(-c4ccc(F)cc4)cc(C4(C)CC4)c3o2)CCN1C(=O)C1CC1` [Example I-116], the IC50 in assay [1] was determined as 6.9 µM; in assay [2] it was 0.99 µM; in assay [3], 0.35 µM; in assay [4], 13 µM.

As for `C[C@H]1CN(C(=O)c2cc3nc(-c4ccc(F)cc4)cc(C4(C)CC4)c3o2)CCN1C(=O)C1(O)CC1` [Example I-117], the IC50 in assay [1] came to 7.7 µM; in assay [2], 2.3 µM; in assay [3], 1.1 µM; in assay [4], 12 µM.

With `C[C@H]1CN(C(=O)c2cc3nc(-c4ccc(F)cc4)cc(C4(C)CC4)c3o2)CCN1C(=O)C1(C)CC1` [Example I-118], the IC50 was 6.1 µM in assay [1], 0.78 µM in assay [2], 0.6 µM in assay [3] and 9.8 µM in assay [4].

`C[C@H]1CN(C(=O)c2cc3nc(-c4ccc(F)cc4)cc(C4(C)CC4)c3o2)CCN1C(=O)C1(C#N)CC1` [Example I-119]: the 50% inhibitory concentration (IC50) in assay [1] stood at 1.6 µM; in assay [2] it was 0.56 µM; in assay [3], 0.62 µM; in assay [4], 1.4 µM.

In the case of `C[C@H]1CN(C(=O)c2cc3nc(-c4ccc(F)cc4)cc(C4(C)CC4)c3o2)CCN1C(=O)C1CCOCC1` [Example I-120], the IC50 in assay [1] was found to be 13 µM; in assay [2], 1.3 µM; in assay [3] it was 0.36 µM; in assay [4], 13 µM.

Regarding `C[C@H]1CN(C(=O)c2cc3nc(-c4ccc(F)cc4)cc(C4(C)CC4)c3o2)CCN1C(=O)C1(O)CCOCC1` [Example I-121], the concentration for half-maximal inhibition (IC50) in assay [1] was 6.3 µM; in assay [2], 1.8 µM; in assay [3] it was 1.1 µM; in assay [4] it was 5.5 µM.

On to `C[C@H]1CN(C(=O)c2cc3nc(-c4ccc(F)cc4)cc(C4(C)CC4)c3o2)CCN1C(=O)c1ccn[nH]1` [Example I-122], for which the IC50 in assay [1] is 1.6 µM; in assay [2], 0.33 µM; in assay [3] it was 1 µM; in assay [4] it was 1.9 µM.

Consider `Cc1cc(C(=O)N2CCN(C(=O)c3cc4nc(-c5ccc(F)cc5)cc(C5(C)CC5)c4o3)C[C@@H]2C)n(C)n1` [Example I-123], for which the IC50 was 4.1 µM in assay [1], 0.93 µM in assay [2], 0.34 µM in assay [3] and 4.5 µM in assay [4].

As to `CC(C)c1nc(-c2ccc(F)cc2)nc2cc(C(=O)N3CCNC(=O)C3(C)C)oc12` [Example I-124], the concentration for half-maximal inhibition (IC50) in assay [1] is 23 µM; in assay [2], 1.9 µM; in assay [3] it was 0.94 µM; in assay [4] it was 24 µM.

Consider `CC(C)c1nc(-c2ccc(F)cc2)nc2cc(C(=O)N3CCN(C(=O)[C@H](O)CC(C)(C)C)[C@@H](C)C3)oc12` [Example I-125], for which the IC50 in assay [1] came out at 20 µM; in assay [2], 1.9 µM; in assay [3], 0.26 µM; in assay [4], 32 µM.
